Experimental data: patent publication US20250032624A1, “SMALL MOLECULE DEGRADATION METHODS FOR TREATING ALS/FTD” (University of Florida Research Foundation, Incorporated, priority 2021, published 2025)

Assays:
Format in all cases: cell-based, human
[1] = tested on: induced pluripotent stem cells (iPSCs); assay: Cell viability in iPSCs; conditions: doses up to 1 μM
Experimental: Patient-derived LCLs were seeded overnight in 96-well plates (˜10^4 cells/well) and treated with compounds for 96 hours. Cell viability was measured using the CellTiter-Fluor™ Cell Viability Assay (Promega) per the manufacturer's protocol. iPSC cell viability was measured by seeding cells in Matrigel-coated 6-well plates with Basal medium (iPSC maintenance described above). After overnight incubation, the medium was replaced with fresh medium containing compounds diluted in 0.1% DMSO. Cells were treated with compound for 96 hours. Cell viability was measured using the AlamarBlue™ Cell Viability Reagent (DAL1025, Thermo Fisher Scientific) per the manufacturer's protocol. iPSN cell viability was measured by […]

C9orf72 = C9orf72 transcript RT-qPCR in healthy iPSNs
Experimental: Differentiated motor neurons (iPSNs) were derived from the iPSCs listed in the previous section. The differentiation process was based on a previously reported method with slight modifications^33,34. Briefly, iPSCs were plated into Matrigel-coated 100 mm dishes (30-40% confluence). Neuroepithelial induction was performed by replacing the Basal medium with Stage 1 medium [47.5% IMDM (Iscove's Modified Dulbecco's Medium), 47.5% F12 medium, 1% NEAA (Non-Essential Amino Acids) (Life Technologies), 2% B27 (Invitrogen), 1% N2 (Invitrogen), 1% PSA (Penicillin-Streptomycin-Amphotericin), 0.2 μM LDN193189 (Stemgent), 10 μM SB431542 (STEMCELL Technologies) and 3 μM CHIR99021 (Sigma-Aldrich)]. The medium was changed daily for 6 days, after which cells were detached from plates using Accutase (STEMCELL Technologies). Cells were seeded into 6-well plates (1.5×10^6 cells/well) in 3 mL of Stage 2 medium [Stage 1 medium supplemented with 0.1 μM All-trans RA (Sigma-Aldrich) and 1 μM SAG (Cayman Chemicals)]. Cells were maintained in Stage 2 medium, with daily medium changes, through Day 11 of the differentiation process. On Day 12, the Stage 2 cell medium was removed and replaced with Stage 3 medium [47.5% IMDM, 47.5% F12 medium, 1% NEAA, 2% B27, 1% N2, 1% PSA, 0.1 μM Compound E (Millipore; Catalog #: 565790), 2.5 μM DAPT (Sigma-Aldrich), 0.1 μM db-cAMP (Millipore), 0.5 μM All-trans RA, 0.1 μM SAG, 20 ng/mL ascorbic acid, 10 ng/mL BDNF (STEMCELL Technologies), and 10 ng/mL GDNF (STEMCELL Technologies)]. This medium was replaced every three days until the end of the differentiation process. Typically, a minimum of 18 days is required to produce immature differentiated motor neurons; 30 days of differentiation is the standard for producing mature differentiated spinal neurons. The cells can be maintained in medium for an additional 14-28 days after reaching maturation. […]
For iPSNs cells were differentiated, following the protocol outlined above, until Day 15. […] RNA was extracted as described above and the expression levels of C9orf72 variants was determined by RT-qPCR and normalized to GAPDH. […]

[2] = tested on: C9orf72 transcript degradation (RNase L, hRRP6, XRN1, XRN2); assay: siRNA knock-down co-treatment experiments in c9ALS/FTD iPSCs (RT-qPCR)
Experimental: iPSCs were cultured as described in the “Cell Culture,” section. Briefly, iPSCs were plated into 6-well Matrigel coated plates and treated with compound and siRNA for four days. On day one, fresh media was added to the cells and siRNAs were transfected using Lipofectamine RNAiMax (Life Technologies), following the manufacturer's protocol. Cells were incubated for 1 hour at 37° C. and then compound was added to a final concentration of 50 nM (DMSO 0.1% (v/v)). Cells were incubated for 48 h, then media was replaced and the siRNA re-transfected. Following a 1 hour incubation, cells were treated with compound and then incubated for another 48 hours. After a total of 96 hours of treatment, RNA was extracted and RT-qPCR was performed following the protocol outline in the “Measuring Levels of C9orf72 and C9orf72 Variants by RT-qPCR,” section.

[3] = 20 nM hRRP6-targeting siRNA, 50 nM compound

Structure (SMILES): CCOC(=O)C1=C(Nc2ccccc2)S/C(=C\c2ccc(OCCOCCOCCOCCNC(=O)CCCOc3ccc4c(c3)c3cc5c(C(=O)N[C@H](C)CN(C)C)nccc5c(C)c3n4C)c(O)c2)C1=O [ALS Compound Formula I]
- toxicity [1]: no significant toxicity
- effect on exon 2-3 levels (C9orf72): No effect
- effect on intron 1b levels (C9orf72): No effect
- effect on intron 1 levels (C9orf72): No effect
- intron 1 and exon 2-3 degradation under RNase L knock-down ([2]; 20 nM RNase L-targeting siRNA, 50 nM compound): ablation of both intron 1 and exon 2-3 degradation
- intron 1 decay and C9orf72 cleavage under XRN1 knock-down ([2]; 20 nM XRN1-targeting siRNA, 50 nM compound): ablation of intron 1 decay and C9orf72 cleavage
- intron 1 decay and C9orf72 cleavage under XRN2 knock-down ([2]; 20 nM XRN2-targeting siRNA, 50 nM compound): no effect on either
- exon 2-3 cleavage under hRRP6 knock-down [2, 3]: no effect
- intron 1 decay under hRRP6 knock-down [2, 3]: ablation of intron 1 decay
- degradation of the transcript under RNase L and hRRP6 knock-down together ([2]; both siRNAs, compound co-treatment): comparable to RNase L knock-down alone
